# Measurements: US20100305076A1, “METHODS OF TREATMENT FOR ULCERATIVE COLITIS” (priority 2006, published 2010)
# Key:
# Format in all cases: in vivo, human
# [1] = tested on: moderate ulcerative colitis; assay: Individual subject examples: PGA score and rectal bleeding
# Excerpt: The subject takes two tablets of the pharmaceutical in the morning and two tablets in the evening such that about 4.8 g/day of 5-ASA is delivered. […] The four tablets are taken in the morning so that 4.8 g/day of 5-ASA is delivered.
# [2] = Safety and tolerability in the phase III trials
# Excerpt: Data from subjects with mild to moderate UC are combined and analyzed from two phase III, multi-center, randomized, double-blind, controlled clinical trials of identical design assessing the safety and clinical efficacy of an increased dosage of 5-ASA.
# [3] = tested on: moderate ulcerative colitis; assay: Two phase III randomized double-blind trials: overall improvement (treatment success) from baseline at week 6; conditions: for Overall improvement: all subjects with moderately active UC, Studies I and II
# Excerpt: Data from subjects with mild to moderate UC are combined and analyzed from two phase III, multi-center, randomized, double-blind, controlled clinical trials of identical design assessing the safety and clinical efficacy of an increased dosage of 5-ASA. The primary endpoint is the percentage of moderate UC subjects achieving overall improvement (i.e., treatment success) from baseline at week 6. This is defined as: (1) complete response (remission); complete resolution of signs and symptoms (stool frequency, rectal bleeding, Subject Functional Assessment (SFA) and sigmoidoscopy score) and a Physician's Global Assessment (PGA) of 0; or (2) partial response; improvement from baseline in the PGA score and improvement in at least one clinical assessment (stool frequency, rectal bleeding, SFA and sigmoidoscopy score) and no worsening in any of the other clinical assessments. […] Pre-specified subgroup analyses for fifty-four demographic and baseline characteristics are performed in subjects with moderately active disease (PGA score=2) to assess consistency of primary endpoint.
# [4] = tested on: moderate ulcerative colitis; assay: Bayesian analysis of treatment success probability in men with moderate disease
# Protocol: In addition, a Bayesian analysis is conducted to calculate the probability that treatment with the 4.8 g/day dose in men results in a higher success rate than treatment with the 2.4 g/day does. This type of analysis considers data from any previous studies conducted using either of the two dose levels. […] Using these prior distributions and Bayes analyses, the “posterior distribution” is calculated for each dose level based on the date obtained from previous studies.
# [5] = Example 6: person, two 1.2 g delayed-release tablets three times daily (7.2 g/day)
# [6] = Example 5: person previously treated with steroids, four 1.2 g delayed-release tablets once daily (4.8 g/day)
# [7] = Example 4: non-smoking man, oral, two 1.2 g tablets twice daily
smiles,measurement,setting,value
"O=C(O)CCNC(=O)c1ccc(/N=N/c2ccc(O)c(C(=O)O)c2)cc1 [balsalazide, (E)-5-[[4-[[(2-carboxyethyl)amino]carbonyl]phenyl]azo]-2-hydroxybenzoic acid]",Physician's Global Assessment (PGA) score,[1]; [5],improves in comparison to baseline
same,Rectal bleeding,[1]; [5],reduced
"Nc1ccc(O)c(C(=O)O)c1 [mesalamine, 5-amino-2-hydroxybenzoic acid]",Tolerability,[2]; 2.4 g/day (400 mg tablet),well tolerated
same,Tolerability / adverse events,"[2]; 4.8 g/day (800 mg tablet), oral delayed-release",well tolerated with adverse events comparable to the 2.4 g/day (400 mg tablet) dose
same,Safety profile of regimen,[2]; about 4.8 g/day vs 2.4 g/day regimen,comparable to that of the 2.4 g/day regimen
same,Physician's Global Assessment (PGA) score,[1]; [6],improves in comparison to baseline
same,Rectal bleeding,[1]; [6],reduced
same,Overall improvement,[3]; 2.4 g/day (400 mg tablet),58%
same,Success Rate,"[3]; 2.4 g/day, male, moderate disease, Study 1, primary analysis",50.0%
same,Success Rate,"[3]; 2.4 g/day, male, moderate disease, Study 1, set-to-failure",46.8%
same,Success Rate,"[3]; 2.4 g/day, male, moderate disease, Study 2, primary analysis",48.8%
same,Success Rate,"[3]; 2.4 g/day, male, moderate disease, Study 2, set-to-failure",47.7%
same,Overall improvement at week 6,"[3]; 2.4 g/day, moderate UC, combined studies, female",66%
same,Overall improvement at week 6,"[3]; 2.4 g/day, moderate UC, combined studies, left-sided colitis",56%
same,Overall improvement at week 6,"[3]; 2.4 g/day, moderate UC, combined studies, male",50%
same,Overall improvement at week 6,"[3]; 2.4 g/day, moderate UC, combined studies, pancolitis",55%
same,Overall improvement at week 6,"[3]; 2.4 g/day, moderate UC, combined studies, previous steroid use: no",62%
same,Overall improvement at week 6,"[3]; 2.4 g/day, moderate UC, combined studies, previous steroid use: yes",52%
same,Overall improvement at week 6,"[3]; 2.4 g/day, moderate UC, combined studies, proctitis",71%
same,Overall improvement at week 6,"[3]; 2.4 g/day, moderate UC, combined studies, proctosigmoiditis",56%
same,Success Rate,"[3]; 2.4 g/day, moderate female, bowel and blood and sig scores at least 2, Study 2, primary endpoint, week 6",27%
same,Success Rate,"[3]; 2.4 g/day, moderate female, bowel and blood and sig scores at least 2, Study 2, set to failure, week 6",27%
same,Success Rate,"[3]; 2.4 g/day, moderate female, bowel and blood and sig scores at least 2, combined studies, primary endpoint, week 6",51%
same,Success Rate,"[3]; 2.4 g/day, moderate female, bowel and blood and sig scores at least 2, combined studies, set to failure, week 6",49%
same,Success Rate,"[3]; 2.4 g/day, moderate female, steroid or (bowel and blood and sig), Study 1, primary endpoint, week 6",55%
same,Success Rate,"[3]; 2.4 g/day, moderate female, steroid or (bowel and blood and sig), Study 1, set to failure, week 6",51%
same,Success Rate,"[3]; 2.4 g/day, moderate female, steroid or (bowel and blood and sig), Study 2, primary endpoint, week 6",33%
same,Success Rate,"[3]; 2.4 g/day, moderate female, steroid or (bowel and blood and sig), Study 2, set to failure, week 6",31%
same,Success Rate,"[3]; 2.4 g/day, moderate female, steroid or (bowel and blood and sig), combined studies, primary endpoint, week 6",46%
same,Success Rate,"[3]; 2.4 g/day, moderate female, steroid or (bowel and blood and sig), combined studies, set to failure, week 6",43%
same,Success Rate,"[3]; 2.4 g/day, moderate female, steroid use, Study 1, primary endpoint, week 6",43%
same,Success Rate,"[3]; 2.4 g/day, moderate female, steroid use, Study 1, set to failure, week 6",41%
same,Success Rate,"[3]; 2.4 g/day, moderate female, steroid use, Study 2, primary endpoint, week 6",38%
same,Success Rate,"[3]; 2.4 g/day, moderate female, steroid use, Study 2, set to failure, week 6",33%
same,Success Rate,"[3]; 2.4 g/day, moderate female, steroid use, combined studies, primary endpoint, week 6",41%
same,Success Rate,"[3]; 2.4 g/day, moderate female, steroid use, combined studies, set to failure, week 6",38%
same,Actual response rate,"[3]; 2.4 g/day, women, moderate disease",exceeded 60%
same,Overall improvement,[3]; 4.8 g/day (800 mg tablet),72%
same,Success Rate,"[3]; 4.8 g/day, female, moderate disease, Study 2, set-to-failure",59.1%
same,Success Rate,"[3]; 4.8 g/day, male, moderate disease, Study 1, primary analysis",75.5%
same,Success Rate,"[3]; 4.8 g/day, male, moderate disease, Study 1, set-to-failure",74.1%
same,Success Rate,"[3]; 4.8 g/day, male, moderate disease, Study 2, primary analysis",76.3%
same,Success Rate,"[3]; 4.8 g/day, male, moderate disease, Study 2, set-to-failure",72.5%
same,Overall improvement at week 6,"[3]; 4.8 g/day, moderate UC, combined studies, female",69%
same,Overall improvement at week 6,"[3]; 4.8 g/day, moderate UC, combined studies, left-sided colitis",71%
same,Overall improvement at week 6,"[3]; 4.8 g/day, moderate UC, combined studies, male",76%
same,Overall improvement at week 6,"[3]; 4.8 g/day, moderate UC, combined studies, pancolitis",71%
same,Overall improvement at week 6,"[3]; 4.8 g/day, moderate UC, combined studies, previous steroid use: no",69%
same,Overall improvement at week 6,"[3]; 4.8 g/day, moderate UC, combined studies, previous steroid use: yes",79%
same,Overall improvement at week 6,"[3]; 4.8 g/day, moderate UC, combined studies, proctitis",77%
same,Overall improvement at week 6,"[3]; 4.8 g/day, moderate UC, combined studies, proctosigmoiditis",71%
same,Success Rate,"[3]; 4.8 g/day, moderate female, bowel and blood and sig scores at least 2, Study 1, primary endpoint, week 6",81%
same,Success Rate,"[3]; 4.8 g/day, moderate female, bowel and blood and sig scores at least 2, Study 2, set to failure, week 6",53%
same,Success Rate,"[3]; 4.8 g/day, moderate female, bowel and blood and sig scores at least 2, combined studies, primary endpoint, week 6",76%
same,Success Rate,"[3]; 4.8 g/day, moderate female, steroid or (bowel and blood and sig), Study 1, primary endpoint, week 6",75%
same,Success Rate,"[3]; 4.8 g/day, moderate female, steroid or (bowel and blood and sig), Study 2, primary endpoint, week 6",73%
same,Success Rate,"[3]; 4.8 g/day, moderate female, steroid or (bowel and blood and sig), combined studies, primary endpoint, week 6",74%
same,Success Rate,"[3]; 4.8 g/day, moderate female, steroid or (bowel and blood and sig), combined studies, set to failure, week 6",about 65%
same,Success Rate,"[3]; 4.8 g/day, moderate female, steroid use, Study 1, primary endpoint, week 6",79%
same,Success Rate,"[3]; 4.8 g/day, moderate female, steroid use, Study 1, set to failure, week 6",73%
same,Success Rate,"[3]; 4.8 g/day, moderate female, steroid use, Study 2, set to failure, week 6",58%
same,Success Rate,"[3]; 4.8 g/day, moderate female, steroid use, combined studies, primary endpoint, week 6",73%
same,Difference in Proportions,"[3]; 4.8 vs 2.4 g/day, female, moderate disease, Study 1, primary analysis",2.3%
same,Difference in Proportions,"[3]; 4.8 vs 2.4 g/day, female, moderate disease, Study 1, set-to-failure",3.0%
same,Difference in Proportions,"[3]; 4.8 vs 2.4 g/day, female, moderate disease, Study 2, primary analysis",4.4%
same,Difference in Proportions,"[3]; 4.8 vs 2.4 g/day, female, moderate disease, Study 2, set-to-failure",−2.4%
same,Difference in Proportions,"[3]; 4.8 vs 2.4 g/day, male, moderate disease, Study 1, primary analysis",25.5%
same,Difference in Proportions,"[3]; 4.8 vs 2.4 g/day, male, moderate disease, Study 1, set-to-failure",27.3%
same,Difference in Proportions,"[3]; 4.8 vs 2.4 g/day, male, moderate disease, Study 2, primary analysis",27.5%
same,Difference in Proportions,"[3]; 4.8 vs 2.4 g/day, male, moderate disease, Study 2, set-to-failure",24.8%
same,Observed differences in success rate between treatment groups,"[3]; 4.8 vs 2.4 g/day, men, moderate disease",approximately 25%
same,Difference in Proportions,"[3]; 4.8 vs 2.4 g/day, women, moderate disease, bowel and blood and sigmoidoscopy scores each ≧2, Study 1, primary endpoint",14%
same,Difference in Proportions,"[3]; 4.8 vs 2.4 g/day, women, moderate disease, bowel and blood and sigmoidoscopy scores each ≧2, Study 2, primary endpoint",42%
same,Difference in Proportions,"[3]; 4.8 vs 2.4 g/day, women, moderate disease, history of steroid use or bowel and blood and sigmoidoscopy each ≧2, Study 1, primary endpoint",20%
same,Difference in Proportions,"[3]; 4.8 vs 2.4 g/day, women, moderate disease, history of steroid use or bowel and blood and sigmoidoscopy each ≧2, Study 2, primary endpoint",40%
same,Difference in Proportions,"[3]; 4.8 vs 2.4 g/day, women, moderate disease, history of steroid use, Study 1, primary endpoint",36%
same,Difference in Proportions,"[3]; 4.8 vs 2.4 g/day, women, moderate disease, history of steroid use, Study 2, primary endpoint",27%
same,Benefit of 4.8 g/day versus 2.4 g/day therapy (FIG. 3),"[3]; by baseline disease activity, subjects having moderate UC",increased therapeutic benefits
same,Benefit of 4.8 g/day versus 2.4 g/day therapy (FIG. 2),"[3]; former steroid users, moderate UC",increased therapeutic benefits
same,4.8 g/day group versus 2.4 g/day group across pre-specified subgroups,"[3]; point estimates and 95% confidence intervals of differences, 54 subgroups",consistently superior
same,Benefit of 4.8 g/day versus 2.4 g/day therapy (FIG. 1),"[3]; subjects under about 65 years of age, Caucasians, non-smokers, moderate UC",increased benefit
same,Probability that 4.8 g/day results in a higher success rate than 2.4 g/day (Bayesian analysis),[4],99.97%
same,Probability of a successful treatment outcome (Bayesian analysis),[4]; 2.4 g/day,47.2%
same,Probability of a successful treatment outcome (Bayesian analysis),[4]; 4.8 g/day,74.7%
"O=C(O)c1cc(N=Nc2ccc(O)c(C(=O)O)c2)ccc1O [olsalazine, 3,3′-dicarboxy-4,4′-dihydroxyazobenzene]",Physician's Global Assessment (PGA) score,[1]; [7],improves in comparison to baseline
same,Rectal bleeding,[1]; [7],reduces
